Activity calls are given as the source filed them. No cut-off for these calls is given here.
Key:
[1] = Genotoxicity in Salmonella typhimurium TA97 by Ames test; assay type: toxicity; conditions: salmonella enterica subsp. enterica serovar typhimurium
[2] = Cmax in human plasma at 4 mg, po; assay type: ADME, cell-free; set-up: route oral, dose 4 mg
[3] = Genotoxicity in Salmonella typhimurium TA102 by Ames test; assay type: toxicity; conditions: salmonella enterica subsp. enterica serovar typhimurium
[4] = Oral bioavailability in Sprague-Dawley rat at 0.5 mg/kg; assay type: ADME, organism-based; conditions: in vivo
[5] = AUC(0 to t) in Sprague-Dawley rat brain at 10 mg/kg, po; assay type: ADME, organism-based; set-up: dose 10 mg/kg
[6] = Induction of CYP3A4 expression in human hepatocytes at 10 uM; assay type: ADME, cell-based, Hepatocyte
[7] = AUC (0 to infinity) in Sprague-Dawley rat at 0.5 mg/kg, iv; assay type: ADME, organism-based; set-up: time infinity, route intravenous, dose 0.5 mg/kg; conditions: in vivo
[8] = Volume of distribution at steady state in Sprague-Dawley rat at 0.5 mg/kg, po or iv; assay type: ADME, organism-based; conditions: in vivo, read-out: Vdss
[9] = Terminal half life in human plasma at 2 mg, po; assay type: ADME, cell-free; conditions: read-out: beta t1/2 (converted)
[10] = AUC (0 to infinity) in Sprague-Dawley rat at 0.5 mg/kg, po; assay type: ADME, organism-based; set-up: time infinity, route oral, dose 0.5 mg/kg; conditions: in vivo
[11] = Genotoxicity in ICR mouse at 7.5 to 30 mg/kg, po administered once a day for 2 consecutive days by micronucleus test; assay type: toxicity, organism-based; conditions: in vivo, 48 h, dose 7.5-30 mg/kg, time 2 day
[12] = Toxicity in Sprague-Dawley rat assessed as animal death at upto 30 mg/kg, po for 4 weeks; assay type: organism-based; conditions: in vivo, 672 h
Mus musculus [13] = assay: Improvement in learning and spatial memory in APP/PS1 double mutant-transgenic mouse model assessed as increase in number of platform crossings at 0.5 to 1 mg/kg, po for 3 months measured during probe trial by Morris water maze test; assay type: functional, organism-based; conditions: dose 0.5-1 mg/kg
[14] = Ratio of drug concentration in brain to plasma of Sprague-Dawley rat at 10 mg/kg, po; assay type: ADME, organism-based; conditions: read-out: BPR
[15] = Tmax in Sprague-Dawley rat brain at 10 mg/kg, po; assay type: ADME, organism-based
[16] = AUC(0 to infinity) in Sprague-Dawley rat brain at 10 mg/kg, po; assay type: ADME, organism-based; set-up: route oral, time infinity, dose 10 mg/kg
[17] = Tmax in human plasma at 12 mg, po; assay type: ADME, cell-free
[18] = target: Voltage-gated inwardly rectifying potassium channel KCNH2 (Homo sapiens, UniProt Q12809); assay: Inhibition of human ERG
Voltage-gated inwardly rectifying potassium channel KCNH2, sequence (Q12809 whole entry): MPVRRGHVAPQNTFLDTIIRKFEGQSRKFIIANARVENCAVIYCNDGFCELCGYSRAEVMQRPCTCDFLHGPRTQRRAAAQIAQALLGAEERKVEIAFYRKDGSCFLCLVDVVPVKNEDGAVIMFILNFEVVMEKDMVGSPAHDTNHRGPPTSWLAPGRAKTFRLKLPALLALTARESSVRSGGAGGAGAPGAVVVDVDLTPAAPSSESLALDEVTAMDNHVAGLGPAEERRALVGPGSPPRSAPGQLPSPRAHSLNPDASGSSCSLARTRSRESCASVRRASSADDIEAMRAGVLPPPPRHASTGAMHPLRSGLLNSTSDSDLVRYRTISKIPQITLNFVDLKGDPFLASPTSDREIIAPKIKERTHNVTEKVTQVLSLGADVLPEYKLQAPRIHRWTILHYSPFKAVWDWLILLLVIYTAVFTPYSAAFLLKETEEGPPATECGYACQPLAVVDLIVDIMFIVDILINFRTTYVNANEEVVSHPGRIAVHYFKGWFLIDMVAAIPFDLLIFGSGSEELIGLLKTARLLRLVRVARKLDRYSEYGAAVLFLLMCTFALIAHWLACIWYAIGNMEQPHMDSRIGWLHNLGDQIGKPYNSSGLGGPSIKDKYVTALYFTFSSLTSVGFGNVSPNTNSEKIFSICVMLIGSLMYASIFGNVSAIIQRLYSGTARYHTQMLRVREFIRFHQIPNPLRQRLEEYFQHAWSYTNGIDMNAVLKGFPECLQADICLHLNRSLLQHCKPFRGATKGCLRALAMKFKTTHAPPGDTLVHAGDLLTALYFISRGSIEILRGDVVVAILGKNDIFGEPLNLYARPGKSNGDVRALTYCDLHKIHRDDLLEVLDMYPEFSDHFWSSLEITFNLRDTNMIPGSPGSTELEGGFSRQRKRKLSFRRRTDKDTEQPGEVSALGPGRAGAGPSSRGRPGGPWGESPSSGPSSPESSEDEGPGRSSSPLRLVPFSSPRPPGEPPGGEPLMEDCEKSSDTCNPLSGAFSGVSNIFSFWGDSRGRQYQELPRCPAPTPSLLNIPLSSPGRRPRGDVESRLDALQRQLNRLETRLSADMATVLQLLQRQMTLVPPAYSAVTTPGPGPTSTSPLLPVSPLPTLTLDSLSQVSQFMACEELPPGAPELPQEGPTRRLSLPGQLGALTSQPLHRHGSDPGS

[19] = Cardiotoxicity in Beagle dog assessed as effect on QT interval at 0.1 to 1 mg/kg; assay type: toxicity, organism-based, Canis lupus familiaris; conditions: in vivo, dose 0.1-1 mg/kg
[20] = AUC (0 to infinity) in Beagle dog at 0.25 mg/kg, po; assay type: ADME, organism-based, Canis lupus familiaris; set-up: route oral, time infinity, dose 0.25 mg/kg; conditions: in vivo
[21] = Genotoxicity in Salmonella typhimurium TA100 by Ames test; assay type: toxicity; conditions: salmonella enterica subsp. enterica serovar typhimurium
Rattus norvegicus = organism: Rattus norvegicus; assay: Selectivity index, ratio of IC50 for rat serum BuChE using S-butyrylthiocholine iodide as substrate to IC50 for rat cortex homogenate acetylcholinesterase using acetylthiocholine iodide as substrate
[22] = MRT in Sprague-Dawley rat brain at 10 mg/kg, po; assay type: ADME, organism-based
Cytochrome P450 3A4 = Cytochrome P450 3A4 (Homo sapiens, UniProt P08684); assay: Inhibition of CYP3A4 in human hepatocytes; assay type: ADME, cell-based, Hepatocyte
Cytochrome P450 3A4, sequence (P08684 whole entry): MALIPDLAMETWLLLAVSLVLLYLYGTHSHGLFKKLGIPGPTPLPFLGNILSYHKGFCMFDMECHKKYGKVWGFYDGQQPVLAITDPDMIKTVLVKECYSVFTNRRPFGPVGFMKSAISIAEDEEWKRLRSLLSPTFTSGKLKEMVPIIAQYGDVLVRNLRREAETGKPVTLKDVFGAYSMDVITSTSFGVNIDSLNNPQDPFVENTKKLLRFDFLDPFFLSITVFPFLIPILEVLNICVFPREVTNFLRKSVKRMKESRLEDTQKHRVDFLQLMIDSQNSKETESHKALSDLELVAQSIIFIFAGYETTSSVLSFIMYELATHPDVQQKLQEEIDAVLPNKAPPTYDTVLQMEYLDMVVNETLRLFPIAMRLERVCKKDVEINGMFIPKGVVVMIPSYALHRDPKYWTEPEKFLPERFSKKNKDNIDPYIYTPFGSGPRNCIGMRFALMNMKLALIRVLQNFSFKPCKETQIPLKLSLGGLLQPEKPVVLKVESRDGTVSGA

[23] = Half life in Beagle dog at 0.25 mg/kg, po; assay type: ADME, organism-based, Canis lupus familiaris; conditions: in vivo
[24] = AUC (0 to t) in Sprague-Dawley rat plasma at 10 mg/kg, po; assay type: ADME, organism-based; set-up: dose 10 mg/kg
[25] = Tmax in human plasma at 2 mg, po; assay type: ADME, cell-free
[26] = Permeability in human Caco-2 cells at 2 to 50 uM; assay type: ADME, cell-based; conditions: dose 2-50 µM, read-out: permeability
[27] = Cmax in human plasma at 8 mg, po; assay type: ADME, cell-free; set-up: route oral, dose 8 mg
[28] = AUC (0 to infinity) in Beagle dog at 0.25 mg/kg, iv; assay type: ADME, organism-based, Canis lupus familiaris; set-up: route intravenous, time infinity, dose 0.25 mg/kg; conditions: in vivo
Cytochrome P450 1A2 = target: T1, Cytochrome P450 1A2 (Homo sapiens, UniProt P05177); assay: Inhibition of CYP1A2 in human hepatocytes; assay type: ADME, cell-based, Hepatocyte
T1 sequence (P05177 whole entry): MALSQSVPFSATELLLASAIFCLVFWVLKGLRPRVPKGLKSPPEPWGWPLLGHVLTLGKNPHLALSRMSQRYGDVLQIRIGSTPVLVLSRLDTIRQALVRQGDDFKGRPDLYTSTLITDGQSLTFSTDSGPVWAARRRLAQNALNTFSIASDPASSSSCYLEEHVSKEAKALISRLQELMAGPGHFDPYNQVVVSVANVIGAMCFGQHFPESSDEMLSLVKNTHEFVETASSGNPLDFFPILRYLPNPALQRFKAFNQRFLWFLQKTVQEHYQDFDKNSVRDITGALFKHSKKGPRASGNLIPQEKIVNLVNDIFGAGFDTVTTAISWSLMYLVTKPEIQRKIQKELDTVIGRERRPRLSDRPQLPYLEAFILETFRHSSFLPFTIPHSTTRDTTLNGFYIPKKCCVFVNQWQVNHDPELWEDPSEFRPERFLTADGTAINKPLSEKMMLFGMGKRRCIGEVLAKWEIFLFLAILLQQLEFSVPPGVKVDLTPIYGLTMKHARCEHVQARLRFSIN

Cytochrome P450 2D6 = Cytochrome P450 2D6 (Homo sapiens, UniProt P10635); assay: Inhibition of CYP2D6 in human hepatocytes; assay type: ADME, cell-based, Hepatocyte
Cytochrome P450 2D6, sequence (P10635 whole entry): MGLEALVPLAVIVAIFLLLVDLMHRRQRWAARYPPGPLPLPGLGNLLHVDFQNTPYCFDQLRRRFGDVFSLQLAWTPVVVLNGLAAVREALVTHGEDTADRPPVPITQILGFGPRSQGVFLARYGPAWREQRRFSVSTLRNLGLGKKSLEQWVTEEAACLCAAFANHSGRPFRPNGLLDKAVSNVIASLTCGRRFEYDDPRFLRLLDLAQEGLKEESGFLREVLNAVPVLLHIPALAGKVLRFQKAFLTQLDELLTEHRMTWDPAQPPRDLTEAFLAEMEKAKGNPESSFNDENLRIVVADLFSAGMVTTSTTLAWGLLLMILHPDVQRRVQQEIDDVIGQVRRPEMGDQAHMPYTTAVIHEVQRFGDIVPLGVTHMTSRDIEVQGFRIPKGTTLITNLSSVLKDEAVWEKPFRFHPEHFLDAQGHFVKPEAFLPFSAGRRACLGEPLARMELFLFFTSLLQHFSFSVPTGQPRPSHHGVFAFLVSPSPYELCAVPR

[29] = Protein binding in human plasma; assay type: ADME, cell-free; conditions: read-out: PPB (converted)
[30] = Toxicity in Beagle dog assessed as animal death at 1 to 20 mg/kg, po; assay type: organism-based, Canis lupus familiaris; conditions: in vivo, dose 1-20 mg/kg
[31] = Cardiotoxicity in Beagle dog assessed as effect on QRS interval at 0.1 to 1 mg/kg; assay type: toxicity, organism-based, Canis lupus familiaris; conditions: in vivo, dose 0.1-1 mg/kg
[32] = Clearance in Beagle dog at 0.25 mg/kg, iv; assay type: ADME, organism-based, Canis lupus familiaris; conditions: in vivo
[33] = Tmax in human plasma at 1 mg, po; assay type: ADME, cell-free
[34] = Efflux ratio of apparent permeability across basolateral to apical side over apical to basolateral side in human Caco-2 cells; assay type: ADME, cell-based
[35] = Terminal half life in human plasma at 8 mg, po; assay type: ADME, cell-free; conditions: read-out: beta t1/2 (converted)
[36] = Oral bioavailability in Beagle dog at 0.25 mg/kg; assay type: ADME, organism-based, Canis lupus familiaris; conditions: in vivo
Mus musculus [37] = assay: Cognitive enhancing effect in ig dosed APP/PS1 double mutant-transgenic mouse model assessed as increase in spontaneous alteration administered once daily by Y-maze test; assay type: functional, organism-based; conditions: dose 0.25-1 mg/kg
[38] = Terminal half life in human plasma at 4 mg, po; assay type: ADME, cell-free; conditions: read-out: beta t1/2 (converted)
[39] = Genotoxicity in Salmonella typhimurium TA98 by Ames test; assay type: toxicity; conditions: salmonella enterica subsp. enterica serovar typhimurium
[40] = Clearance in Sprague-Dawley rat at 0.5 mg/kg, iv; assay type: ADME, organism-based; conditions: in vivo
[41] = Toxicity in Beagle dog assessed as effect on blood pressure at 0.1 to 1 mg/kg; assay type: organism-based, Canis lupus familiaris; conditions: in vivo, dose 0.1-1 mg/kg
[42] = Cmax in human plasma at 12 mg, po; assay type: ADME, cell-free; set-up: route oral, dose 12 mg
[43] = Cmax in Sprague-Dawley rat brain at 10 mg/kg, po; assay type: ADME, organism-based; set-up: route oral, dose 10 mg/kg
[44] = Half life in Sprague-Dawley rat brain at 10 mg/kg, po; assay type: ADME, organism-based
[45] = Selectivity ratio of IC50 for human ERG to IC50 for rat cortex homogenate acetylcholinesterase
[46] = Cardiotoxicity in Beagle dog assessed as effect on […] at 0.1 to 1 mg/kg; assay type: toxicity, organism-based, Canis lupus familiaris; conditions: in vivo, dose 0.1-1 mg/kg

COc1cc2c(cc1OC)C(=O)C(CC1(F)CCN(Cc3ccccc3F)CC1)C2 (stereo not given)
Activity [1]: Non-Toxic | Cmax [2]: 8.61 ng/mL | Activity [3]: Non-Toxic | bioavailability [4]: 45.3% | AUC(0-t) [5]: 5840 ng·h/mL | Activity [6]: Non-Toxic | AUC(0-inf) [7]: 395 ng·h/mL | Vd [8]: 6.52 L/kg | half-life [9]: 20.7 h | AUC(0-inf) [10]: 179 ng·h/mL | Activity [11]: Non-Toxic | Activity [12]: Non-Toxic | Activity (Mus musculus [13]): Active | Kp [14]: 5.4 | Tmax [15]: 0.5 h | AUC(0-inf) [16]: 6430 ng·h/mL | Tmax [17]: 1.5 h | IC50 [18]: 9.23 µM | Activity [19]: Non-Toxic | AUC(0-inf) [20]: 157 ng·h/mL | Activity [21]: Non-Toxic | Ratio IC50 (Rattus norvegicus): 36900 | MRT [22]: 8.9 h | IC50 (Cytochrome P450 3A4): > 30 µM | half-life [23]: 23.2 h | AUC(0-t) [24]: 1080 ng·h/mL | Tmax [25]: 1.5 h | Papp at up to 50 µM [26]: 0.574 ×10⁻⁶ cm/s | Cmax [27]: 16.4 ng/mL | AUC(0-inf) [28]: 256 ng·h/mL | IC50 (Cytochrome P450 1A2): > 30 µM | IC50 (Cytochrome P450 2D6): > 30 µM | fraction unbound [29]: 0.022 | Activity [30]: Non-Toxic | Activity [31]: Non-Toxic | clearance [32]: 17.5 mL/min/kg | Tmax [33]: 1.5 h | efflux ratio [34]: 0.67 | half-life [35]: 27.6 h | bioavailability [36]: 61.3% | Activity (Mus musculus [37]): Active | half-life [38]: 30.8 h | Activity [39]: Non-Toxic | clearance [40]: 23.7 mL/min/kg | Activity [41]: Non-Toxic | Cmax [42]: 23.5 ng/mL | Cmax [43]: 831 ng/mL | half-life [44]: 6.99 h | Ratio IC50 [45]: 10700 | Activity [46]: Non-Toxic

From ChEMBL document CHEMBL4813953, “Kinetics-Driven Drug Design Strategy for Next-Generation Acetylcholinesterase Inhibitors to Clinical Candidate” (J Med Chem, 2021)
